# Test results as given in the supplement of paper PMC10307832.
# What was measured:
# Test in all cases: relative viability (nuclei count vs DMSO), 5 days (fraction); higher = more cells survive
# EPLC-272H = system: EPLC-272H
# Outline: (§1)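 Nuclei were stained with Hoechst during a one-step fixation (final 0.05% Triton X-100, 1% formaldehyde, 1 ug/ml Hoechst) carried out 5 days after dosing, then counted on 4× images. The cells, lung cancer lines in 1536-well plates, had been dosed by pin tool the day after seeding with one drug alone or a fixed anchor-drug dose plus five library-drug doses (not always all listed) in √10 steps. Relative viability is the nuclei count in treated wells divided by that in vehicle wells, and each value is the median of duplicate plates.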
# PC-3 [JPC-3] = system: PC-3 [JPC-3]
# Outline: as §1
# H3255 = system: H3255
# Outline: as §1
# HCC-44 = system: HCC-44
# Outline: as §1
# LU99A = system: LU99A
# Outline: as §1
# EKVX = system: EKVX
# Outline: as §1
# NCI-H1666 = system: NCI-H1666
# Outline: as §1
# NCI-H2085 = system: NCI-H2085
# Outline: as §1
# NCI-H650 = system: NCI-H650
# Outline: as §1
# BEN = system: BEN
# Outline: as §1
# LCLC-97TM1 = system: LCLC-97TM1
# Outline: as §1
compound,measurement,setting,value
CC(=O)O[C@@]12CO[C@@H]1C[C@H](O)[C@@]1(C)C(=O)[C@H](O)C3=C(C)[C@@H](OC(=O)[C@H](O)[C@@H](NC(=O)OC(C)(C)C)c4ccccc4)C[C@@](O)([C@@H](OC(=O)c4ccccc4)[C@H]21)C3(C)C [Docetaxel] + COc1cccc2cc(-c3nc([C@H]4CC[C@H](C(=O)O)CC4)n4ncnc(N)c34)[nH]c12 [OSI-027] (partner 0.5 µM),relative viability,EPLC-272H; first compound 0.0002 µM,0.258
same,relative viability,EPLC-272H; first compound 0.000632 µM,0.235
same,relative viability,EPLC-272H; first compound 0.002 µM,0.228
same,relative viability,EPLC-272H; first compound 0.006325 µM,0.159
same,relative viability,EPLC-272H; first compound 0.02 µM,0.124
same,relative viability,PC-3 [JPC-3]; first compound 0.0002 µM,0.703
same,relative viability,PC-3 [JPC-3]; first compound 0.000632 µM,0.79
same,relative viability,PC-3 [JPC-3]; first compound 0.002 µM,0.441
same,relative viability,PC-3 [JPC-3]; first compound 0.02 µM,0.15
same,relative viability,H3255; first compound 0.0002 µM,0.66
same,relative viability,H3255; first compound 0.000632 µM,0.67
same,relative viability,H3255; first compound 0.002 µM,0.51
same,relative viability,H3255; first compound 0.006325 µM,0.369
same,relative viability,H3255; first compound 0.02 µM,0.277
same,relative viability,HCC-44; first compound 0.0002 µM,0.533
same,relative viability,HCC-44; first compound 0.000632 µM,0.591
same,relative viability,HCC-44; first compound 0.002 µM,0.269
same,relative viability,HCC-44; first compound 0.006325 µM,0.294
same,relative viability,HCC-44; first compound 0.02 µM,0.16
same,relative viability,LU99A; first compound 0.0002 µM,0.293
same,relative viability,LU99A; first compound 0.002 µM,0.29
same,relative viability,LU99A; first compound 0.006325 µM,0.247
same,relative viability,LU99A; first compound 0.02 µM,0.202
same,relative viability,EKVX; first compound 0.0002 µM,0.672
same,relative viability,EKVX; first compound 0.000632 µM,0.607
same,relative viability,EKVX; first compound 0.002 µM,0.35
same,relative viability,EKVX; first compound 0.006325 µM,0.272
same,relative viability,EKVX; first compound 0.02 µM,0.128
same,relative viability,NCI-H1666; first compound 0.0002 µM,0.739
same,relative viability,NCI-H1666; first compound 0.000632 µM,0.641
same,relative viability,NCI-H1666; first compound 0.002 µM,0.574
same,relative viability,NCI-H1666; first compound 0.006325 µM,0.491
same,relative viability,NCI-H1666; first compound 0.02 µM,0.322
same,relative viability,NCI-H2085; first compound 0.0002 µM,0.718
same,relative viability,NCI-H2085; first compound 0.000632 µM,0.706
same,relative viability,NCI-H2085; first compound 0.002 µM,0.433
same,relative viability,NCI-H2085; first compound 0.006325 µM,0.316
same,relative viability,NCI-H2085; first compound 0.02 µM,0.272
same,relative viability,NCI-H650; first compound 0.0002 µM,0.436
same,relative viability,NCI-H650; first compound 0.000632 µM,0.375
same,relative viability,NCI-H650; first compound 0.002 µM,0.266
same,relative viability,NCI-H650; first compound 0.006325 µM,0.265
same,relative viability,NCI-H650; first compound 0.02 µM,0.181
same,relative viability,BEN; first compound 0.0002 µM,0.283
same,relative viability,BEN; first compound 0.000632 µM,0.285
same,relative viability,BEN; first compound 0.002 µM,0.241
same,relative viability,BEN; first compound 0.006325 µM,0.181
same,relative viability,BEN; first compound 0.02 µM,0.165
same,relative viability,LCLC-97TM1; first compound 0.0002 µM,0.696
same,relative viability,LCLC-97TM1; first compound 0.000632 µM,0.603
same,relative viability,LCLC-97TM1; first compound 0.002 µM,0.352
same,relative viability,LCLC-97TM1; first compound 0.006325 µM,0.182
same,relative viability,LCLC-97TM1; first compound 0.02 µM,0.118
